Results: publication PMC11938014, “Development and Application of Small Molecule–Peptide Conjugates as Cathepsin K-Specific Covalent Irreversible Inhibitors in Human Osteoclast and Lung Cancer” (JACS Au, 2025)

Experiments:
Assay type in all cases: cell-based
human osteoclasts = experiment: Osteoclast differentiation assay on plastic (TRAP); conditions: osteoclasts grown on plastic, 7 days
Procedure: To assess osteoclast differentiation, 7.5 × 10^4 cells from PBMCs, cells preincubated with M-CSF, were cultured in 96-well plates. After 3 days, medium was replaced with differentiation medium (αMEM; M8042 sigma, 10% FBS, 5% Penstrep and L-Glu, BI) supplemented with 25 ng/mL M-CSF and 25 ng/mL RANKL (R&D systems, 390-TN) and different inhibitors: GD20 (1 or 5 μM), ODN (1 or 5 μM), or vehicle. The differentiation medium was changed after 2 and 5 days. Cells were fixed on the 7th day with 4% PFA for 10 min at room temperature, they were washed three times with PBS, and then stained using a TRAP staining kit (Sigma-Aldrich, 387A-1KT) according to the manufacturer’s protocol with additional staining of the nuclei with DAPI. Osteoclast parameters were obtained by analysis of three wells from each- treatment. […] The total osteoclast surface area was determined using ImageJ software by manually tracing individual osteoclasts perimeters.
Figure S7. Identification of fluorescent band identity. […] G els were scanned for fluorescence and then underwent immunoblotting with different cathepsin -specific antibodies . […]
Fluorescence Immunoblot s.ch. = single chain, […]
Quantification of the total number of osteoclasts, and c) osteoclast-cell area in each treatment […]
Figure S9. […] Cathepsin activity was detected by labeling intact osteoclast with GB123, a pan-cathepsin activity-based probe. […]

[1] = biological target: T1, CTSK in U2-OS and U-87 MG cells (Homo sapiens, UniProt P43235); experiment: Fluorescence microscopy of CTSK inhibition in cell lines (GD32 probe); conditions: 3 μM, 2 h
T1 construct: endogenous in cells; host or cells: U2-OS and U-87 MG
T1 sequence (P43235 115-329): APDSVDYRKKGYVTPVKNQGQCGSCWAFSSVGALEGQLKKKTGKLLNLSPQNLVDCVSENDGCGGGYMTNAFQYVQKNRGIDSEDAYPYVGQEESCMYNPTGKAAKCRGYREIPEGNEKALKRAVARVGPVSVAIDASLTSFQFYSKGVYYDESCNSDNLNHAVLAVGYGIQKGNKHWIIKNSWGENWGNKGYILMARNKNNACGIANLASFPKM
Procedure: (§1) We next corroborated CTSK-specific inhibition by fluorescence microscopy studies of OC. Human OC were grown on 8-well plates; the intact cells were treated with either of the CTSK inhibitors or with the vehicle and then with the CTSK-specific fluorescent ABP GD32.[19] The fluorescence microscopy pictures were acquired following cell fixation, which permitted imaging and evaluating CTSK activity and inhibition in cells. […] As the inhibitors are specific to CTSK, they could not block the fluorescence signals of GB123 associated with other cathepsins (B, L, S) (Figure 8b).
Figure 8 Detection of inhibition of endogenous cathepsin K in intact cells by fluorescence microscopy. Enriched human monocytes from peripheral blood mononuclear cells (PBMC) were isolated from healthy donors’ blood and were treated for 14 days with M-CSF and RANKL or M-CSF alone, as indicated. Osteoclast cells were treated with vehicle (DMSO) or indicated inhibitors [3 μM] in a culture medium for 2 h, followed by incubation with (a) GD32 (a specific CTSK ABP) for 8 h or (b) GB123 for 2 h. Similar to those described in panel (a), cultures of U2-OS cells (c) and U-87 MG cells (d) were grown in 8-well chambers. Cells were pretreated with either the DMSO or [3 μM] of indicated specific CTSK inhibitors for 2 h and then labeled by the addition of 1.25 μM GD32 to the culture medium for 24 h (U2-OS) or 2 h (U-87 MG). […]

[2] = biological target: T2, endogenous cathepsin K in human osteoclasts (Homo sapiens, UniProt P43235); experiment: Fluorescence microscopy of CTSK inhibition in human osteoclasts; conditions: human OC, 3 μM, 2 h; for fluorescence signal of pan-cathepsin probe GB123: then GB123 2 h; for CTSK activity labeled by GD32 probe: then GD32 8 h
T2 construct: endogenous in cells; host or cells: primary human osteoclasts differentiated from blood monocytes with M-CSF and RANKL
T2 sequence (P43235 115-329): T1 sequence (P43235 115-329)
Procedure: as §1
Figure 8 Detection of inhibition of endogenous cathepsin K in intact cells by fluorescence microscopy. Enriched human monocytes from peripheral blood mononuclear cells (PBMC) were isolated from healthy donors’ blood and were treated for 14 days with M-CSF and RANKL or M-CSF alone, as indicated. Osteoclast cells were treated with vehicle (DMSO) or indicated inhibitors [3 μM] in a culture medium for 2 h, followed by incubation with (a) GD32 (a specific CTSK ABP) for 8 h or (b) GB123 for 2 h. Similar to those described in panel (a), cultures of U2-OS cells (c) and U-87 MG cells (d) were grown in 8-well chambers. Cells were pretreated with either the DMSO or [3 μM] of indicated specific CTSK inhibitors for 2 h and then labeled by the addition of 1.25 μM GD32 to the culture medium for 24 h (U2-OS) or 2 h (U-87 MG). After fixation, cells were stained with 4′,6-diamidino-2-phenylindole (DAPI) (nucleus), and images were captured by confocal microscopy.
Cells were seeded in 8-well chambers and then treated with an inhibitor or vehicle for 2 h. Cells were then labeled with the indicated probes for the indicated times and then washed with PBS, fixed with cold methanol, and mounted with DAPI-Fluoromount-G (SouthernBiotech, 0100-20) before visualization by confocal microscopy. Zeiss Confocal LSM 980 Microscope with Zen software was used with Airyscan (Germany).

CTSK activity labeled by GD32 probe [1] | fluorescence signal of pan-cathepsin probe GB123 [2] | CTSK activity labeled by GD32 probe [2] | Structure (SMILES) | total osteoclast area (human osteoclasts)
block CTSK activity | only a partial reduction | completely abolished CTSK activity | CC(C)C[C@H](N[C@@H](c1ccc(-c2ccc(S(C)(=O)=O)cc2)cc1)C(F)(F)F)C(=O)NCC(=O)COC(=O)[C@@H]1CCCN1C(=O)[C@H](CC(C)C)NC(=O)OCC1c2ccccc2-c2ccccc21 [GD20] | slightly decreased
block CTSK activity | only a partial reduction | completely abolished CTSK activity | CC(C)C[C@H](N[C@@H](c1ccc(-c2ccc(S(C)(=O)=O)cc2)cc1)C(F)(F)F)C(=O)NCC(=O)COC(=O)[C@@H]1CCCN1C(=O)[C@H](CCC(N)=O)NC(=O)OCC1c2ccccc2-c2ccccc21 [GD38] | –
